Reference: the NIST ThermoML archive (doi:10.1021/je060271a)

Conditions: 323.15 K, Liquid, Vibrating tube method

CCCC(=O)OCC(COC(=O)CCC)(COC(=O)CCC)COC(=O)CCC [pentaerythritol tetrabutyrate]
Conditions | mass density [kg/m3]
6544.6 kPa | 1029.7
6573.1 kPa | 1029.6
6601.4 kPa | 1029.8
6630.4 kPa | 1029.8
6664.6 kPa | 1029.8
6693.3 kPa | 1029.7
6722.9 kPa | 1029.8
6752.8 kPa | 1029.7
6788.3 kPa | 1029.8
6819.1 kPa | 1029.9
6850.5 kPa | 1029.9
6881.6 kPa | 1030
6918.6 kPa | 1030
6950.2 kPa | 1029.9
6982.9 kPa | 1030
7021.5 kPa | 1030
7051.8 kPa | 1029.9
7078.5 kPa | 1030
7111.5 kPa | 1030.1
7138.8 kPa | 1030.1
7165.9 kPa | 1030.2
7198.9 kPa | 1030.1
7227.1 kPa | 1030.2
7255.4 kPa | 1030.1
7284.6 kPa | 1030.2
7319.5 kPa | 1030.1
7348.8 kPa | 1030.3
7378.7 kPa | 1030.3
7408.9 kPa | 1030.2
7446.2 kPa | 1030.3
7476.6 kPa | 1030.3
7507.3 kPa | 1030.3
7538.2 kPa | 1030.3
7569.8 kPa | 1030.5
7607.4 kPa | 1030.5
7638.7 kPa | 1030.6
7671.1 kPa | 1030.6
7709.5 kPa | 1030.4
7742.2 kPa | 1030.6
7775.2 kPa | 1030.6
7809.6 kPa | 1030.6
7843.9 kPa | 1030.6
7885.3 kPa | 1030.6
7920.5 kPa | 1030.6
7953.8 kPa | 1030.7
7983 kPa | 1030.8
8018.4 kPa | 1030.7
8049.1 kPa | 1030.6
8080.2 kPa | 1030.7
8117.6 kPa | 1030.9
8149.2 kPa | 1030.7
8176.4 kPa | 1030.7
8203 kPa | 1030.9
8233.4 kPa | 1031
8258.9 kPa | 1030.8
8285.5 kPa | 1030.9
8312 kPa | 1031.1
8343.3 kPa | 1030.9
8369.3 kPa | 1030.9
8401.7 kPa | 1031.1
8428.3 kPa | 1031.1
8455.7 kPa | 1031
8482.6 kPa | 1031.1
8515.8 kPa | 1031.2
8543.4 kPa | 1031.1
8571.8 kPa | 1031.1
8605.3 kPa | 1031.2
8634.6 kPa | 1031.2
8664.9 kPa | 1031.3
8693.6 kPa | 1031.2
8722 kPa | 1031.2
8757 kPa | 1031.2
8785.7 kPa | 1031.2
8815.3 kPa | 1031.3
8851 kPa | 1031.3
8880.8 kPa | 1031.3
8916.7 kPa | 1031.4
8947.2 kPa | 1031.4
8977.7 kPa | 1031.5
9015.1 kPa | 1031.4
9048.4 kPa | 1031.5
9079.8 kPa | 1031.5
9105.3 kPa | 1031.6
9137.4 kPa | 1031.5
9181.7 kPa | 1031.6
9214.1 kPa | 1031.5
9239.9 kPa | 1031.6
9278.9 kPa | 1031.6
9312 kPa | 1031.6
9352.1 kPa | 1031.7
9391.1 kPa | 1031.5
9424.9 kPa | 1031.7
9459.7 kPa | 1031.8
9501.9 kPa | 1031.8
9536.7 kPa | 1031.9
9571.9 kPa | 1031.8
9607.4 kPa | 1031.8
9650.6 kPa | 1031.8
9687.7 kPa | 1031.8
9732.6 kPa | 1032
9765 kPa | 1032
9791.2 kPa | 1032
9822.2 kPa | 1031.9
9848.9 kPa | 1032.1
9875.6 kPa | 1032.1
9907.5 kPa | 1032
9935 kPa | 1032
9961.9 kPa | 1032.1
9989 kPa | 1032.1
10021 kPa | 1032.1
10048 kPa | 1032.1
10082 kPa | 1032.2
10110 kPa | 1032.1
10138 kPa | 1032.2
10166 kPa | 1032.2
10200 kPa | 1032.2
10228 kPa | 1032.2
10262 kPa | 1032.2
10292 kPa | 1032.4
10321 kPa | 1032.3
10356 kPa | 1032.4
10385 kPa | 1032.5
10415 kPa | 1032.5
10445 kPa | 1032.5
10481 kPa | 1032.4
10512 kPa | 1032.5
10542 kPa | 1032.4
10579 kPa | 1032.5
10610 kPa | 1032.6
10641 kPa | 1032.6
10672 kPa | 1032.6
10710 kPa | 1032.5
10742 kPa | 1032.6
10774 kPa | 1032.6
10806 kPa | 1032.7
10845 kPa | 1032.8
10877 kPa | 1032.7
10916 kPa | 1032.7
10948 kPa | 1032.7
10982 kPa | 1032.7
11022 kPa | 1032.7
11055 kPa | 1032.8
11089 kPa | 1032.8
11123 kPa | 1032.9
11165 kPa | 1032.9
11200 kPa | 1032.8
